Data as given in patent publication US20240316008A1, “TREATMENT OF SYSTEMIC IMMUNE ACTIVATION SYNDROMES” (TRANQUIS THERAPEUTICS, INC., priority 2020, published 2024).
Counter-ions that a name gives are not always drawn.

Experiments:
ALS = details: transgenic mouse model of ALS; cited from earlier work
TNFα = TNFα release by LPS-stimulated BV2 cells (ELISA); type: cell-based, murine; details: BV-2 cells, ELISA, concentration-response
Description: First, 100 μl of supernatant was removed from Cell Plate and transferred to a Dilution Plate, which was then centrifuged at 216×g for 10 minutes to remove particulates. The dilution plate was either assayed immediately or aliquots were taken and stored at stored at ≤−20° C.; repeated freeze-thaw cycles were avoided.
Next, a standard curve was prepared by first pipetting 900 ul of Calibrator Diluent RD5K into the 700 pg/mL tube, followed by 200 μl of the appropriate calibrator diluent in the remaining tubes. The stock solution was used to produce a dilution. The resulting tubes were then thoroughly mixed. The Mouse TNFα Standard (700 pg/mL) served as the high standard, and the Calibrator Diluent RD5T served as the zero standard at 0 pg/ml.
Assay Diluent RD1-63 (50 ul) was then added to the center of each well and mixed before and during its use. Then, 50 ul of either standard, control, or sample was added to the center of each well, and covered with adhesive strip. The plate was then mixed for 1 minute and incubated for 2 hours at room temperature.
Each well was then aspirated and washed by filling each well with Wash Buffer (400 ul) five times. After the last wash, the remaining Wash Buffer was removed by aspirating or decanting. TNFα […] conjugate (100 ul) was then added to each well, covered with adhesive strip, incubated for 2 hours at room temperature, and washed and/or aspirated five times.
Substrate solution (100 ul) was then added to each well, incubated in the dark for 30 minutes at room temperature, followed by addition of 100 μl of Stop Solution and mixed. The optical density of each well was determined within 30 minutes by using a microplate reader set to 450 nm.
Plates were read on a Spectrostar Nano machine with built-in MARS data analysis at […].
For TNFα ELISA, the BV-2 cells were very responsive to low concentrations of LPS. A concentration range of 0.1 ng/ml to 1,000 ng/ml was tested. 0.3 ng/ml LPS produced enough TNFα release (8-10 fold above background) from these cells after 22 hours stimulation without saturating the linear range of the ELISA detection system. If higher LPS concentrations are used for stimulating BV-2 cells, a […] is advised to stay within the linear range of the detection system. The current TNFα protocol uses 10,000 cells per well in 96 well plate. A cell count titration can optimize S/B ratio. Miniaturization from 96 well to 384 well is also feasible with this assay.
The TNFα ELISA assay is described in Example 5. The IL-6 assay is described below.

IL-6 = IL-6 secretion from LPS-stimulated BV2 cells (ELISA); type: cell-based, murine; details: BV-2 cells, concentration-response
Description: [1] First, 100 μl of supernatant from cell plate was removed and transferred to a dilution plate, followed by centrifugation of the dilution plate at 216×g for 10 minutes to remove particulates. The dilution plate was then either assayed immediately or aliquots were taken and stored at ≤−20° C.; repeated freeze-thaw cycles should be avoided. Mouse IL-6 Standard (500 pg/mL) served as the high standard, and the Calibrator Diluent RD5T served as the zero standard at 0 pg/ml. Assay Diluent RD1-14 (50 μl) was then added to the center of each well and mixed before and during its use. Then, 50 μl of standard, control, or sample was added to the center of each well, and covered with adhesive strip. The plate was then mixed for 1 minute and incubated for 2 hours at room temperature. Each well was then aspirated and washed by filling each well with wash buffer (400 ul) five times. After the last wash, the remaining Wash Buffer was removed by aspirating or decanting. Mouse IL-6 conjugate (100 ul) was then added to each well, covered with adhesive strip, incubated for 2 hours at room temperature, and washed and/or aspirated five times.
Substrate solution (100 ul) was then added to each well, incubated in the dark for 30 minutes at room temperature, followed by addition of 100 ul of Stop Solution and mixed. The optical density of each well was determined within 30 minutes by using a microplate reader set to 450 nm.

sepsis = test: Mouse model of sepsis / hyperinflammation (virus followed by LPS, as described in Wang); details: mice, intravenous, various doses
Description: Briefly, mice are anesthetized with a ketamine/xylazine mixture. A virus, such as a coronavirus, influenza virus, rhinovirus, respiratory syncytial virus, metapneumovirus, adenovirus, or a boca virus, is administered. The virus may be administered intranasally dropwise.
Next, LPS diluted in a buffer, such as PBS, is injected intraperitoneally at specific doses.
To provide comparators for assessing the effects of TQS-168 and its analogs, groups of positive control mice are treated with one or more antibodies against pro-inflammatory cytokines of interest: anti-NK1.1 antibody (PK136; Bio X Cell) diluted in PBS is injected at 100 μg per injection (100 μL) retro-orbitally concurrently with each challenge; anti-IFNγ antibody (XMG1.2, Bio X Cell) is diluted in PBS and injected at 500 μg per injection (100 μL) retro-orbitally concurrently with each challenge; anti-IL6R (15A7.10 mg/kg; Bio X Cell), anti-TNFα (XT3.11, 500 μg per injection; Bio X Cell), anti-IFNαR (MAR1-5A3, 10 mg/kg; Bio X Cell), and anti-IL1β (B122, 500 μg per injection; Bio X Cell) are injected retro-orbitally. For a negative control, isotype antibody is injected retro-orbitally.
The pro-inflammatory cytokines can be measured using the ELISA assay described in Example 1.

[1] = test system: 12 human primary cell-based systems; details: 5000 μM, comparator profile; cited from earlier work

SMILES	disease onset (ALS)	lifespan (ALS)	LPS-stimulated TNFα secretion (TNFα)	LPS-stimulated IL-6 secretion (IL-6)	circulating concentrations of pro-inflammatory cytokines (sepsis)	hyperinflammatory symptoms (sepsis)	T-cell proliferation, IgG, TNFα, and IL-8 [1]
CC(=O)N(O)CCCCCNC(=O)CCC(=O)N(O)CCCCCNC(=O)CCC(=O)N(O)CCCCCN [Deferoxamine, deferoxamine mesylate]	delay	extend					
CC(C)(C)c1ccc(-c2nc3ccncc3[nH]2)cc1 [TQS-234]			decrease	decrease			
CC(C)(C)c1ccc(-c2nc3c(F)cc(F)cc3[nH]2)cc1 [TQS-235]			decrease	decrease	effective in reducing	effective in reducing	
CC(C)(C)c1ccc(-c2nc3cc(C(F)(F)F)ccc3[nH]2)cc1 [TQS-236]			decrease	decrease			
CC(C)(C)c1cccc(-c2nc3c(F)cc(F)cc3[nH]2)c1 [TQS-237]			decrease	decrease	effective in reducing	effective in reducing	
CC(C)(C)c1ccc(-c2cn3ccccc3n2)cc1 [TQS-238]			decrease	decrease			
[2H]c1c([2H])c([2H])c2[nH]c(-c3ccc(C(C)(C)C)cc3)nc2c1[2H] [TQS-239]			decrease	decrease			
CC(C)(C)c1ccc(-c2nc3c(F)c(F)c(F)cc3[nH]2)cc1 [TQS-240]			decrease	decrease	effective in reducing	effective in reducing	
CN(C)C(=N)N=C(N)N [metformin, metformin hydrochloride]							inhibit
